Source: paper PMC9739105, “Myotoxin-3 from the Pacific Rattlesnake Crotalus oreganus oreganus Venom Is a New Microtubule-Targeting Agent” (Molecules, 2022)
Where no end group is shown, it is not given here.

Assays:
EB1 = conditions: through phosphorylation of EB1 by GSK3; ref [34]; cited from earlier work
MCF-7 cells = conditions: ref [30]; cited from earlier work
Text: (§1) We also observed a different response of MCF-7 and U87 cells when measuring cell viability upon myotoxin-3 treatment. […] The tubulin isotype composition impacts the structural properties of microtubules and tunes their dynamics. Tubulin is also subjected to a large diversity of post-translational modifications that a ...

HeLa cells = conditions: ref [30]; cited from earlier work
Text: as §1

[1] = tested on: bacteria/fungi (anti-microbial activity); conditions: without disulfide bonds; ref [18],[19]; cited from earlier work
[2] = reference not given; cited from earlier work
Text: In summary, peak 1 contains two 45-residue peptides, i.e., myotoxin-3 (45-residue His^5-myotoxin-3) and one isoform with Leucine at position 5 (45-residue Leu^5-myotoxin-3). Peak 2 contains two shorter isoforms (43 residues) of myotoxin-3 with either Histidine (43-residue His^5-myotoxin-3) or Leucine at position 5 (43-residue Leu^5-myotoxin-3) (Figure 3). This structure resemblance explains the similarity in their chromatographic behavior.

cell = conditions: ref [24]; cited from earlier work
Text: Moreover, myotoxin-3 altered the dynamics of microtubules in MCF-7 cells (Table 1). […] Disturbing the dynamic instability of microtubules is a hallmark o ...

[3] = biological target: lamb brain αβ-tubulin heterodimer (lamb (purified from lamb brain)); assay: ITC; PEAQ-ITC, 20 °C, 55 µM tubulin in the cell, 2.2 mM myotoxin 3 in the syringe, 20 mM sodium phosphate pH 6.5, 1 mM TCEP, 0.1 mM GTP (non-assembly buffer), one-set-of-sites model

For `C[C@]12CC[C@H](O)C[C@H]1CC[C@@H]1[C@@H]2CC[C@]2(C)[C@@H](c3ccc(=O)oc3)CC[C@]12O` [bufalin], the “Effect on microtubule dynamics” value (EB1) is given as “affecting microtubule dynamics through the phosphorylation of EB1 by GSK3”.

In the case of `C[C@@H]1O[C@@H](O[C@@H]2C=C3CC[C@@H]4[C@H](CC[C@]5(C)[C@@H](c6ccc(=O)oc6)CC[C@]45O)[C@@]3(C)CC2)[C@H](O)[C@H](O)[C@H]1O` [proscillaridin A], the “Effect on microtubule dynamics” value (EB1) is listed as “affecting microtubule dynamics through the phosphorylation of EB1 by GSK3”.

For `CC[C@]1(O)C[C@H]2CN(CCc3c([nH]c4ccccc34)[C@@](C(=O)OC)(c3cc4c(cc3OC)N(C=O)[C@H]3[C@@](O)(C(=O)OC)[C@H](OC(C)=O)[C@]5(CC)C=CCN6CC[C@]43[C@@H]65)C2)C1` [vincristine], the “Response of cells to vincristine” value (MCF-7 cells) is given as “reattached to the culture flask after a failed mitosis and remained viable” and the “Response of cells to vincristine” value (HeLa cells) is given as “detached and died”.

For “DTT-reduced crotamine: DTT-reduced crotamine (YKQCHKKGGHCFPKEKICLPPSSDFGKMDCRWRWKCCKKGSG; DTT-reduced; UniProt Q9PWF3 23-64, looked up)”, the “Antimicrobial activity” value [1] is given as “kept their antimicrobial activity”.

In the case of crotamine, the “Anti-proliferative effect” value [2] is listed as “displaying an anti-proliferative effect” and the “Cell penetration” value (cell) is listed as “cell-penetrating properties”.

For “non-structured crotamine: non-structured crotamine (without disulfide bonds) (YKQCHKKGGHCFPKEKICLPPSSDFGKMDCRWRWKCCKKGSG; without disulfide bonds; UniProt Q9PWF3 23-64, looked up)”, the “Antimicrobial activity” value [1] is given as “keeps its anti-microbial activity”.

For “non-structured recombinant crotamine: non-structured recombinant crotamine expressed in bacteria (YKQCHKKGGHCFPKEKICLPPSSDFGKMDCRWRWKCCKKGSG; also: recombinant, without disulfide bonds; UniProt Q9PWF3 23-64, looked up)”, the “Antimicrobial activity” value [1] is given as “kept their antimicrobial activity”.

With YKRCHKKGGHCFPKTVICLPPSSDFGKMDCRWKWKCCKKGSVNNA (cysteines not oxidized (no disulfide bonds)) [synthetic non-oxidized myotoxin-3 (without disulfide bonds)] the Kd [3] was 5.3 µM and the stoichiometry N ([3]; scale: myotoxin-3 molecules per tubulin heterodimer) was 2.
